In publication PMC3933419, “Synthesis and Properties of a Selective Inhibitor of Homeodomain–Interacting Protein Kinase 2 (HIPK2)” (PLoS ONE, 2014):

Legend:
Assay in all cases: Kinase panel selectivity profiling
Type in all cases: biochemical
BRSK2 = BRSK2 (Homo sapiens, UniProt Q8IWQ3); details: TBID 1 μM, 125 kinase panel, read-out: % activity of the enzyme
From the text: (§1) The source of HIPK2 and of all of the other protein kinases used for specificity assays is as described elsewhere.
(§2) Conditions for the activity assays of all other protein kinases tested in selectivity experiments are as described or referenced in [9].

CHK2 = CHK2 (Homo sapiens, UniProt O96017); details: TBID 1 μM, 125 kinase panel, read-out: % activity of the enzyme
Chain of CHK2 (O96017 whole entry): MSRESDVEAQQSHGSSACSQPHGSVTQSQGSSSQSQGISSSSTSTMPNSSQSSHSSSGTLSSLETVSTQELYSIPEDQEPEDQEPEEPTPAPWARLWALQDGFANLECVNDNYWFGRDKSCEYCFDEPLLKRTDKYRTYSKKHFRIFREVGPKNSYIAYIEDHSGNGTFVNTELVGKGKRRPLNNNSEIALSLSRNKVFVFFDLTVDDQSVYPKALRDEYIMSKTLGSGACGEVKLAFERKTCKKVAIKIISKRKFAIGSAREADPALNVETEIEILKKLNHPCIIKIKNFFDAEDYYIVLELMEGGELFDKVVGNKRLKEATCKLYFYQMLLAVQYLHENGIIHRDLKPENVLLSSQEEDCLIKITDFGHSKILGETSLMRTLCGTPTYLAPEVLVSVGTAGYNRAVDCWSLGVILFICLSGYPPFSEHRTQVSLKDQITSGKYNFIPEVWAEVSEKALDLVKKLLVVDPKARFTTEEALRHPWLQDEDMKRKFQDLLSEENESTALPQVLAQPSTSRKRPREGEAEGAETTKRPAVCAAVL
From the text: as §1, §2

CLK2 = CLK2 (Homo sapiens, UniProt P49760); details: TBID 1 μM, 125 kinase panel, read-out: % activity of the enzyme
From the text: as §1, §2

CSK = CSK (Homo sapiens, UniProt P41240); details: TBID 1 μM, 125 kinase panel, read-out: % activity of the enzyme
Chain of CSK (P41240 whole entry): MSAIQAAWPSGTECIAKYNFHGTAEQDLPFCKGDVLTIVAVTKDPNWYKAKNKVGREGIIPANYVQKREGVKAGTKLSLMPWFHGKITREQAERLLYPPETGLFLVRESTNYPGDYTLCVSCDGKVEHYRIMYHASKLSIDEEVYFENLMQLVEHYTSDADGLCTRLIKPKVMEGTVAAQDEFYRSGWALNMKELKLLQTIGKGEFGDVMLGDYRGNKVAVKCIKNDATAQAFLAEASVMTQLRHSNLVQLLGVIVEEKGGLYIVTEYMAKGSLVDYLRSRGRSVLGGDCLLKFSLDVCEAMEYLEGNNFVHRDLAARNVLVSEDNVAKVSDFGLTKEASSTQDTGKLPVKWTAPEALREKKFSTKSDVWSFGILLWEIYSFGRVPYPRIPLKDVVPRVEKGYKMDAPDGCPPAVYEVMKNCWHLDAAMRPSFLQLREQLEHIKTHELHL
From the text: as §1, §2

EF2K = EF2K (Homo sapiens, UniProt O00418); details: TBID 1 μM, 125 kinase panel, read-out: % activity of the enzyme
From the text: as §1, §2

EIF2AK3 = EIF2AK3 (Homo sapiens, UniProt Q9NZJ5); details: TBID 1 μM, 125 kinase panel, read-out: % activity of the enzyme
Chain of EIF2AK3 (Q9NZJ5 30-1116): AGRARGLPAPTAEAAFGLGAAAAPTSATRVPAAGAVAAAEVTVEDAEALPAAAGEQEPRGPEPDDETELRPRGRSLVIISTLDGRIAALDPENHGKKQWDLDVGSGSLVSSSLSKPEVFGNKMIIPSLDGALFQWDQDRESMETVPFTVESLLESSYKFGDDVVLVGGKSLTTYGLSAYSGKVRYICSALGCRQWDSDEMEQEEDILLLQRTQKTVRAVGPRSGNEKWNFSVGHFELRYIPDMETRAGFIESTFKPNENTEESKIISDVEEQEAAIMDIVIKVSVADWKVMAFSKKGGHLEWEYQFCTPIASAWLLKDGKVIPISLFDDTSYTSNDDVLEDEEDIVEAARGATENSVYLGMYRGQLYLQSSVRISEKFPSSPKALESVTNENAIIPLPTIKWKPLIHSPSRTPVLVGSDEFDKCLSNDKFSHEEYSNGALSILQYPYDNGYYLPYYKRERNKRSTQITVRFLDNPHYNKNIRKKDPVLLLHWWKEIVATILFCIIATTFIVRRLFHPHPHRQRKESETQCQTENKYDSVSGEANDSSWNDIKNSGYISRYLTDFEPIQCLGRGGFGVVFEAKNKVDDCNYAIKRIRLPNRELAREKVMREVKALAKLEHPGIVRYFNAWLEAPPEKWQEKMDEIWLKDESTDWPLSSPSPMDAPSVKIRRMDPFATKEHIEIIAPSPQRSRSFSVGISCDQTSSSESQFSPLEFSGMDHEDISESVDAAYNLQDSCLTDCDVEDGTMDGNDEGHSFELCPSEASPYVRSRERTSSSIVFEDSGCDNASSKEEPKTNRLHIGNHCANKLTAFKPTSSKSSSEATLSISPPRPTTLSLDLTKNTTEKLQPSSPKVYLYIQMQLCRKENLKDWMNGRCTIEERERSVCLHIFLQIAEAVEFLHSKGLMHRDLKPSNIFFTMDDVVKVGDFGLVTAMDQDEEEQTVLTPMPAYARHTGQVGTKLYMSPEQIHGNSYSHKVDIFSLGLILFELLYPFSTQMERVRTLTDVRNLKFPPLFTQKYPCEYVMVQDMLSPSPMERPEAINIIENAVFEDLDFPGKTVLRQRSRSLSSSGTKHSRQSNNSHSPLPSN
From the text: as §1, §2

EPH-A4 = EPH-A4 (Homo sapiens, UniProt P54764); details: TBID 1 μM, 125 kinase panel, read-out: % activity of the enzyme
From the text: as §1, §2

EPH-B1 = EPH-B1 (Homo sapiens, UniProt P54762); details: TBID 1 μM, 125 kinase panel, read-out: % activity of the enzyme
From the text: as §1, §2

EPH-B3 = EPH-B3 (Homo sapiens, UniProt P54753); details: TBID 1 μM, 125 kinase panel, read-out: % activity of the enzyme
From the text: as §1, §2

EPH-B4 = EPH-B4 (Homo sapiens, UniProt P54760); details: TBID 1 μM, 125 kinase panel, read-out: % activity of the enzyme
From the text: as §1, §2

ERK8 = ERK8 (Homo sapiens, UniProt Q8TD08); details: TBID 1 μM, 125 kinase panel, read-out: % activity of the enzyme
From the text: as §1, §2

HIPK2 = target: T1, HIPK2 (Homo sapiens, UniProt Q9H2X6)
T1 construct: The source of HIPK2 and of all of the other protein kinases used for specificity assays is as described elsewhere
T1 sequence (Q9H2X6 whole entry): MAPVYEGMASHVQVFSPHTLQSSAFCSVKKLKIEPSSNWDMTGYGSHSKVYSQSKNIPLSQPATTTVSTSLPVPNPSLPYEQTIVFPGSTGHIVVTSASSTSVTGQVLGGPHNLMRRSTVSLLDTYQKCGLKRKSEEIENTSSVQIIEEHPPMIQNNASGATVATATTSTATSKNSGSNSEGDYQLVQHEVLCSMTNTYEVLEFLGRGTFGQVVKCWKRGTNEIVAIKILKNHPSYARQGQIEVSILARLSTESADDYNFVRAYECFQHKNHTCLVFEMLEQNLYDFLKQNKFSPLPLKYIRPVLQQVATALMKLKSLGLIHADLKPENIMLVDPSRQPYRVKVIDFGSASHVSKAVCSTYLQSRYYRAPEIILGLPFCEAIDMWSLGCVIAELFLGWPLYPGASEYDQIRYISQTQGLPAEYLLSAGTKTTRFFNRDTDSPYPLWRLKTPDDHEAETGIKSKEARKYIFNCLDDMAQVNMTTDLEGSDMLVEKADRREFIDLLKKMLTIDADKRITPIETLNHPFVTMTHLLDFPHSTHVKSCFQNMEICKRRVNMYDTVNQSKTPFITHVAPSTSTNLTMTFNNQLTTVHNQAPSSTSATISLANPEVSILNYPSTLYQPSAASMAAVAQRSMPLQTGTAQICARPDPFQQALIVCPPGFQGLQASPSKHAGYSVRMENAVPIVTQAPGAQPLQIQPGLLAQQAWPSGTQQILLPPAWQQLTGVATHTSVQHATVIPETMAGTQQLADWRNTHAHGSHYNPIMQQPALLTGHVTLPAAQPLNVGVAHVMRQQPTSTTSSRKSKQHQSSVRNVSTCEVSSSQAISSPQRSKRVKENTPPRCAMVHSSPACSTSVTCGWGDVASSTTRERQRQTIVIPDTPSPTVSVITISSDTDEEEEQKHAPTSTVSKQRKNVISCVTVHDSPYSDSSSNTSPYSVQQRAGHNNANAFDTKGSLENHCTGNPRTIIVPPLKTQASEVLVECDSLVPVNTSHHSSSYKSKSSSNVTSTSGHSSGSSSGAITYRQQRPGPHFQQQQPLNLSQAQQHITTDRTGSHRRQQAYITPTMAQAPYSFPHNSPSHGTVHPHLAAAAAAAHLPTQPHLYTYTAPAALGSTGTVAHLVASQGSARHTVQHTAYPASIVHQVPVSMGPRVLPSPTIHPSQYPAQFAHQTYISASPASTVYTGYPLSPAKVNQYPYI
From the text: as §1, §2

IR = IR (Homo sapiens, UniProt P06213); details: TBID 1 μM, 125 kinase panel, read-out: % activity of the enzyme
From the text: as §1, §2

IRAK4 = IRAK4 (Homo sapiens, UniProt Q9NWZ3); details: TBID 1 μM, 125 kinase panel, read-out: % activity of the enzyme
From the text: as §1, §2

JNK3 = JNK3 (Homo sapiens, UniProt P53779); details: TBID 1 μM, 125 kinase panel, read-out: % activity of the enzyme
From the text: as §1, §2

LKB1 = LKB1 (Homo sapiens, UniProt Q15831); details: TBID 1 μM, 125 kinase panel, read-out: % activity of the enzyme
From the text: as §1, §2

MARK3 = MARK3 (Homo sapiens, UniProt P27448); details: TBID 1 μM, 125 kinase panel, read-out: % activity of the enzyme
From the text: as §1, §2

MKK1 = MKK1 (Homo sapiens, UniProt Q02750); details: TBID 1 μM, 125 kinase panel, read-out: % activity of the enzyme
From the text: as §1, §2

MKK2 = MKK2 (Homo sapiens, UniProt P36507); details: TBID 1 μM, 125 kinase panel, read-out: % activity of the enzyme
Chain of MKK2 (P36507 whole entry): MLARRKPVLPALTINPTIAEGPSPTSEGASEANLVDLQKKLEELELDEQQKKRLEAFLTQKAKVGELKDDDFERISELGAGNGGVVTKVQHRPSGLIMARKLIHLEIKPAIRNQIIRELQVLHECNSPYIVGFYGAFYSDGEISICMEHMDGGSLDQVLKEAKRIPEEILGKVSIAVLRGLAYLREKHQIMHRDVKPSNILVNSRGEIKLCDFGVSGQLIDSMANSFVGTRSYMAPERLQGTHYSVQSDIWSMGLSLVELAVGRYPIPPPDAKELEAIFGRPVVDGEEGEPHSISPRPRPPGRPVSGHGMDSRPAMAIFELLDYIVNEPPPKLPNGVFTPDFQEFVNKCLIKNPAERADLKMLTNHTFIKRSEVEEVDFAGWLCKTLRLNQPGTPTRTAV
From the text: as §1, §2

MLK3 = MLK3 (Homo sapiens, UniProt Q16584); details: TBID 1 μM, 125 kinase panel, read-out: % activity of the enzyme
From the text: as §1, §2

MNK1 = MNK1 (Homo sapiens, UniProt Q9BUB5); details: TBID 1 μM, 125 kinase panel, read-out: % activity of the enzyme
Chain of MNK1 (Q9BUB5 whole entry): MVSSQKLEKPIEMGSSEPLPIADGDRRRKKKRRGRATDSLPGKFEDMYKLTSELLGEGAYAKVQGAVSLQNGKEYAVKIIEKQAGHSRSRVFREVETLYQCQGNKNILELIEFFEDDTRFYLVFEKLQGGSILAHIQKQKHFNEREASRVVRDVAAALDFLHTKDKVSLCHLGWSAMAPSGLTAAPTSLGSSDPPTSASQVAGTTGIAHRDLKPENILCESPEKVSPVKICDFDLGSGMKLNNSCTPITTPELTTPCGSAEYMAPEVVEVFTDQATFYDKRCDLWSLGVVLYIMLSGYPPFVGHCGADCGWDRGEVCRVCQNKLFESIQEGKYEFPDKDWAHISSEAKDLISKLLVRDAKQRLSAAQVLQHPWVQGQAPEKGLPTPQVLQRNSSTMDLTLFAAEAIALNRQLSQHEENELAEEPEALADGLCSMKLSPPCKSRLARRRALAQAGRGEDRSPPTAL
From the text: as §1, §2

MNK2 = MNK2 (Homo sapiens, UniProt Q9HBH9); details: TBID 1 μM, 125 kinase panel, read-out: % activity of the enzyme
From the text: as §1, §2

MSK1 = MSK1 (Homo sapiens, UniProt O75582); details: TBID 1 μM, 125 kinase panel, read-out: % activity of the enzyme
From the text: as §1, §2

MST2 = MST2 (Homo sapiens, UniProt Q13188); details: TBID 1 μM, 125 kinase panel, read-out: % activity of the enzyme
Chain of MST2 (Q13188 whole entry): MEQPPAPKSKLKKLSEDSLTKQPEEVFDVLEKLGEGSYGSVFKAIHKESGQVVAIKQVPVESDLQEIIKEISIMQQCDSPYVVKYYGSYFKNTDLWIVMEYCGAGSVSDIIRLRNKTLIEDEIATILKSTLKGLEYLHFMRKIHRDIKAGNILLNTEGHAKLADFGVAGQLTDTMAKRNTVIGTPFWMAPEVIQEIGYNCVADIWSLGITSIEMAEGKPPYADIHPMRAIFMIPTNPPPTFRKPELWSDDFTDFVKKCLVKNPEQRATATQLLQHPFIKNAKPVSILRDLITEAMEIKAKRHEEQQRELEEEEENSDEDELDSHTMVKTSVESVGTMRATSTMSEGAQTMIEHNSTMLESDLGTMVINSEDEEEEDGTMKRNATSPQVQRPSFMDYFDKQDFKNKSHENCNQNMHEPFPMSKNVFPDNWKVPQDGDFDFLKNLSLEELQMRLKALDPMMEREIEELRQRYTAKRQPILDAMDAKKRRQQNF
From the text: as §1, §2

PAK6 = PAK6 (Homo sapiens, UniProt Q9NQU5); details: TBID 1 μM, 125 kinase panel, read-out: % activity of the enzyme
From the text: as §1, §2

PHK = PHK (Homo sapiens, UniProt Q16816); details: TBID 1 μM, 125 kinase panel, read-out: % activity of the enzyme
From the text: as §1, §2

PIM2 = PIM2 (Homo sapiens, UniProt Q9P1W9); details: TBID 1 μM, 125 kinase panel, read-out: % activity of the enzyme
From the text: as §1, §2

PIM3 = PIM3 (Homo sapiens, UniProt Q86V86); details: TBID 1 μM, 125 kinase panel, read-out: % activity of the enzyme
From the text: as §1, §2

PKA = PKA (Homo sapiens, UniProt P17612); details: TBID 1 μM, 125 kinase panel, read-out: % activity of the enzyme
From the text: as §1, §2

PKBb = PKBb (Homo sapiens, UniProt P31751); details: TBID 1 μM, 125 kinase panel, read-out: % activity of the enzyme
From the text: as §1, §2

ROCK 2 = ROCK 2 (Homo sapiens, UniProt O75116); details: TBID 1 μM, 125 kinase panel, read-out: % activity of the enzyme
From the text: as §1, §2

S6K1 = S6K1 (Homo sapiens, UniProt P23443); details: TBID 1 μM, 125 kinase panel, read-out: % activity of the enzyme
From the text: as §1, §2

SGK1 = SGK1 (Homo sapiens, UniProt O00141); details: TBID 1 μM, 125 kinase panel, read-out: % activity of the enzyme
From the text: as §1, §2

STK33 = STK33 (Homo sapiens, UniProt Q9BYT3); details: TBID 1 μM, 125 kinase panel, read-out: % activity of the enzyme
From the text: as §1, §2

SYK = SYK (Homo sapiens, UniProt P43405); details: TBID 1 μM, 125 kinase panel, read-out: % activity of the enzyme
From the text: as §1, §2

SmMLCK = SmMLCK (Homo sapiens, UniProt Q15746); details: TBID 1 μM, 125 kinase panel, read-out: % activity of the enzyme
From the text: as §1, §2

TAK1 = TAK1 (Homo sapiens, UniProt O43318); details: TBID 1 μM, 125 kinase panel, read-out: % activity of the enzyme
Chain of TAK1 (O43318 1-303 limits assumed): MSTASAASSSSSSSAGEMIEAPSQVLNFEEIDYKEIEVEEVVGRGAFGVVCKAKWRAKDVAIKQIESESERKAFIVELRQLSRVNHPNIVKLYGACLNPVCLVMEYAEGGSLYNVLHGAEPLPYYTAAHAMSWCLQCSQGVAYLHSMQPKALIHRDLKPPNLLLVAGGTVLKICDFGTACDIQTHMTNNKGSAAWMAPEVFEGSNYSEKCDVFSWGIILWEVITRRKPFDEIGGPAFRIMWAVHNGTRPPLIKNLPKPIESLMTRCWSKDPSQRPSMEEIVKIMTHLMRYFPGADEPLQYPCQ
From the text: as §1, §2

TAO1 = TAO1 (Homo sapiens, UniProt Q7L7X3); details: TBID 1 μM, 125 kinase panel, read-out: % activity of the enzyme
From the text: as §1, §2

TTBK1 = TTBK1 (Homo sapiens, UniProt Q5TCY1); details: TBID 1 μM, 125 kinase panel, read-out: % activity of the enzyme
From the text: as §1, §2

TTK = TTK (Homo sapiens, UniProt P33981); details: TBID 1 μM, 125 kinase panel, read-out: % activity of the enzyme
From the text: as §1, §2

p38a MAPK = p38a MAPK (Homo sapiens, UniProt Q16539); details: TBID 1 μM, 125 kinase panel, read-out: % activity of the enzyme
From the text: as §1, §2

p38d MAPK = p38d MAPK (Homo sapiens, UniProt O15264); details: TBID 1 μM, 125 kinase panel, read-out: % activity of the enzyme
From the text: as §1, §2

O=C1c2c(Br)c(Br)c(Br)c(Br)c2C(=O)N1c1ncc[nH]1 [TBID, 4,5,6,7-Tetrabromo-2-(1H-imidazol-2-yl)isoindoline-1,3-dione]
activity at 1 µM (BRSK2): 99% | activity at 1 µM (CHK2): 100% | activity at 1 µM (CLK2): 101% | activity at 1 µM (CSK): 89% | activity at 1 µM (EF2K): 111% | activity at 1 µM (EIF2AK3): 107% | activity at 1 µM (EPH-A4): 100% | activity at 1 µM (EPH-B1): 96% | activity at 1 µM (EPH-B3): 103% | activity at 1 µM (EPH-B4): 114% | activity at 1 µM (ERK8): 95% | residual activity (HIPK2; 10 µM TBID, panel of 76 protein kinases): entirely suppressed | activity at 1 µM (HIPK2; TBID 1 μM, 125 kinase panel, read-out: % activity of the enzyme): 31% | activity at 1 µM (IR): 101% | activity at 1 µM (IRAK4): 101% | activity at 1 µM (JNK3): 101% | activity at 1 µM (LKB1): 102% | activity at 1 µM (MARK3): 115% | activity at 1 µM (MKK1): 115% | activity at 1 µM (MKK2): 96% | activity at 1 µM (MLK3): 97% | activity at 1 µM (MNK1): 106% | activity at 1 µM (MNK2): 113% | activity at 1 µM (MSK1): 89% | activity at 1 µM (MST2): 90% | activity at 1 µM (PAK6): 102% | activity at 1 µM (PHK): 116% | activity at 1 µM (PIM2): 101% | activity at 1 µM (PIM3): 101% | activity at 1 µM (PKA): 104% | activity at 1 µM (PKBb): 104% | activity at 1 µM (ROCK 2): 117% | activity at 1 µM (S6K1): 94% | activity at 1 µM (SGK1): 98% | activity at 1 µM (STK33): 111% | activity at 1 µM (SYK): 108% | activity at 1 µM (SmMLCK): 103% | activity at 1 µM (TAK1): 78% | activity at 1 µM (TAO1): 110% | activity at 1 µM (TTBK1): 113% | activity at 1 µM (TTK): 92% | activity at 1 µM (p38a MAPK): 88% | activity at 1 µM (p38d MAPK): 106%
